Counter-ions that a name gives are not always drawn.
Row | melting point [°C] | SMILES
1 | 215 | COc1cc(-c2nc3ccccc3o2)ccc1-c1ccccn1 (as salt: hydrochloride) [Example 54, 2-(3-Methoxy-4-pyridin-2-ylphenyl)-1,3-benzoxazole hydrochloride salt]
2 | 190 to 191 | N#CCc1ccc(-c2nc3ccccc3o2)cc1Br [Example 1, [4-(1,3-Benzoxazol-2-yl)-2-bromnophenyl]acetonitrile]
3 | 175 to 176 | N#CCc1ccc(-c2nc3ccccc3o2)cc1-c1cccc(C#N)c1 [Example 4, 5′-(1,3-Benzoxazol-2-yl)-2′-(cyanomethyl)-1,1′-biphenyl-3-carbonitrile]
4 | 203 | N#CCc1ccc(-c2nc3ccccc3o2)cc1[N+](=O)[O-] [Example 6, [4-(1,3-Benzoxazol-2-yl)-2-nitrophenyl]acetonitrile]
5 | 198 to 199 | N#CCc1ccc(-c2nc3ccccc3o2)cc1N [Example 7, [2-Amino-4-(1,3-benzoxazol-2-yl)phenyl]acetonitrile]

— patent publication US20050065340A1, “Metabotropic glutamate receptor-5 modulators” (priority 2001, published 2005)
